# Experiments:
# Plasmodium falciparum [1] = test: Inhibition of drug-resistant Plasmodium falciparum Dd2 after 72 hrs; type: functional, organism-based; details: Dd2, 72 h
# [2] = biological target: T1, Enoyl-acyl-carrier protein reductase (Plasmodium falciparum, UniProt Q965D5); test: Inhibition of PfENR enzymatic activity
# T1 sequence (Q965D5 whole entry): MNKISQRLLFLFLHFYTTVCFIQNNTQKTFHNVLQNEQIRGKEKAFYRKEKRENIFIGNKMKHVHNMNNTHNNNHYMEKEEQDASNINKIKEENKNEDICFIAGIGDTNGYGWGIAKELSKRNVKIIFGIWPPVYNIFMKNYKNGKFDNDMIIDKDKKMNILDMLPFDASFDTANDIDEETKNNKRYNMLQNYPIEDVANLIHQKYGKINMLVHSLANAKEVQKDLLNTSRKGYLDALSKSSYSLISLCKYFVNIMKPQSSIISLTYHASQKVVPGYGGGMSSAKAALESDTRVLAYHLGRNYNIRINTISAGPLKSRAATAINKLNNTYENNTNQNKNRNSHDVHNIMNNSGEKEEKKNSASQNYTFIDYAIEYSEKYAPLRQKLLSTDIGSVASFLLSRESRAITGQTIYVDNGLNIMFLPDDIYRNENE
# Plasmodium falciparum [3] = test: Inhibition of drug-sensitive Plasmodium falciparum 3D7 after 72 hrs; type: functional, organism-based; details: 3D7, 72 h
SMILES,EC50 (Plasmodium falciparum [1]),IC50 [2],EC50 (Plasmodium falciparum [3])
O=C(O)c1ccc(Oc2ccc(Cl)cc2O)c(Cl)c1,130 µM,0.55 µM,110 µM
O=C(c1ccc(Oc2ccc(Cl)cc2O)c(Cl)c1)N1CCOCC1,94.5 µM,0.2 µM,63.5 µM
Oc1ccccc1CNc1ccc(Oc2ccc(Cl)cc2O)c(Cl)c1,5.6 µM,0.32 µM,4.5 µM
O=S(=O)(Nc1ccc(Oc2ccc(Cl)cc2O)c(Cl)c1)c1ccccc1,77.5 µM,0.37 µM,55.1 µM
CNC(=O)c1ccc(Oc2ccc(Cl)cc2O)c(Cl)c1,100 µM,0.31 µM,77.8 µM
O=S(=O)(Nc1ccc(Oc2ccc(Cl)cc2O)c(Cl)c1)C(F)(F)F,> 120 µM,0.14 µM,> 120 µM
NC(=O)Nc1ccc(Oc2ccc(Cl)cc2O)c(Cl)c1,120 µM,0.16 µM,110 µM
O=C(Nc1ccc(Oc2ccc(Cl)cc2O)c(Cl)c1)N1CCOCC1,86.4 µM,0.25 µM,66.8 µM
Oc1cc(Cl)ccc1Oc1ccc(-c2nn[nH]n2)cc1Cl,> 150 µM,0.413 µM,120 µM
NC(=O)c1ccc(Oc2ccc(Cl)cc2O)c(Cl)c1,100 µM,0.12 µM,96.3 µM
O=S(=O)(Nc1ccc(Oc2ccc(Cl)cc2O)c(Cl)c1)c1cccc2ccccc12,43.7 µM,0.59 µM,34.3 µM
CN(C)C(=O)c1ccc(Oc2ccc(Cl)cc2O)c(Cl)c1,95.7 µM,0.46 µM,68.4 µM
O=S(=O)(Nc1ccc(Oc2ccc(Cl)cc2O)c(Cl)c1)c1ccc2ccccc2c1,33.9 µM,2.5 µM,23.5 µM
Oc1ccc(Oc2ccc(Cl)cc2O)c(Cl)c1,87.8 µM,0.22 µM,65.3 µM
N#Cc1ccc(Oc2ccc(Cl)cc2O)c(Cl)c1,5.4 µM,0.12 µM,3.9 µM
N#Cc1ccccc1CNc1ccc(Oc2ccc(Cl)cc2O)c(Cl)c1,45.4 µM,0.56 µM,26.7 µM
O=C(NO)c1ccc(Oc2ccc(Cl)cc2O)c(Cl)c1,30.6 µM,1.2 µM,31.2 µM
N#CCc1ccc(Oc2ccc(Cl)cc2O)c(Cl)c1,36.4 µM,0.19 µM,23.1 µM
Oc1cc(Cl)ccc1Oc1ccc(NCc2ccccc2)cc1Cl,47.5 µM,0.14 µM,35.8 µM
O=C(c1ccc(Oc2ccc(Cl)cc2O)c(Cl)c1)N1CCCCC1,18 µM,0.68 µM,11.7 µM
CC(=O)Nc1ccc(Oc2ccc(Cl)cc2O)c(Cl)c1,50.9 µM,0.057 µM,52.2 µM
O=C(Nc1ccc(Oc2ccc(Cl)cc2O)c(Cl)c1)c1ccccc1,83.9 µM,0.17 µM,57.2 µM
O=C(c1ccc(Oc2ccc(Cl)cc2O)c(Cl)c1)N1CCCC1,42.6 µM,0.81 µM,20.7 µM
O=[N+]([O-])c1ccc(Oc2ccc(Cl)cc2O)c(Cl)c1,3.2 µM,0.18 µM,2.1 µM
O=C(NCc1ccccc1)c1ccc(Oc2ccc(Cl)cc2O)c(Cl)c1,20.6 µM,3 µM,7.5 µM
Nc1ccc(Oc2ccc(Cl)cc2O)c(Cl)c1,140 µM,0.36 µM,120 µM
Oc1cc(Cl)ccc1Oc1ccc(Cl)cc1Cl [TRICLOSAN],3.9 µM,0.073 µM,2.9 µM

# — ChEMBL document CHEMBL1141868, “Synthesis, biological activity, and X-ray crystal structural analysis of diaryl ether inhibitors of malarial enoyl acyl carrier protein reductase. Part 1: 4'-substituted triclosan derivatives” (Bioorg Med Chem Lett, 2005)
